Our source for the melting point values is a melting point compilation (Tetko et al.; mined from patent text by program, amines drawn as free bases though some values may be those of a salt).

The structures appear in SMILES notation.

For the compound `CCCC(OC)c1ccc(Cl)c2nc3n(c12)CCCN3c1c(C)cc(Cl)cc1Cl` (stereo not drawn), the melting point (usually the temperature, or range, at which the solid turns liquid) lay within 151 to 152 °C.
`CCCCc1nc2cc(C)c(C)cc2n1Cc1ccc(C#N)cc1` came in with a melting point of 160 °C.
The compound `CC(O)(COc1ccc(C(=O)c2ccccc2)cc1)C(F)(F)F` (stereo not drawn) had a melting point of 70 to 73 °C.
Under `Cc1nc(N2CCN(Cc3ccc(F)cc3)C2=O)sc1-c1nn[nH]n1` stands 145 to 149 °C; under `COc1ccc(-c2c(C(=O)O)c3ccccc3n2C)cc1`, 229 to 230 °C.
Under `CCOC(=O)c1ncn2c(-c3ccccc3)ccnc12` stands 200 to 204 °C; under `O=C(O)CCCCCNC(=O)CCC(=O)Nc1cccc2ccccc12`, 229 to 231 °C; under `CCNC(=O)Nc1nccc(-c2ccncc2)n1`, 204 to 207 °C.
For `CS(=O)(=O)c1ccc(-c2cnn(-c3ccc(F)c(F)c3)c(=O)c2Oc2ccc(F)cc2)cc1` the value was 178 to 180 °C; for `COC(=O)c1cnn(C)c1S(=O)(=O)NC(=O)Nc1nc(C)cc(OC)n1`, 183 to 184 °C.
`COc1nc(C(F)(F)F)c(F)c(=O)n1-c1cc(OC(C)C)c(Cl)cc1F` came in with a melting point of 144 to 146 °C.
For `O=C(Cc1ccc(F)cc1F)c1ccc(Cl)nc1`, the melting point is 93 to 95 °C.
For `Cc1ccc([N+](=O)[O-])c(C)c1C(=O)O` the value was 109 to 112 °C; for `O=C(O)CCC(CCCCNS(=O)(=O)c1ccc(Cl)cc1)CCOc1cccnc1` (stereo not drawn), 86 to 88 °C; for `CN(C)CCNC(=O)Nc1ccc(-c2cnc(COCc3cc4ccccc4o3)o2)cc1`, 150 to 154 °C.
For `CCN1CCNC(=O)c2ccc(Nc3ncc(Cl)c(Nc4ccccc4C(=O)NC)n3)cc21` the value was 168 to 171 °C; for `Cn1ccc(=O)c(OCc2ccccc2)c1C(O)c1cccnc1` (stereo not drawn), 169 to 174 °C; for `CCOc1cc([C@@H](CS(C)(=O)=O)N2Cc3cccc(NCC(C)C)c3C2=O)ccc1OC`, 122 to 124 °C.
The compound `CCOc1c(C=O)cc2c3c(cccc13)-c1ccccc1-2` came in with a melting point of 118 to 119 °C.
`Cc1c(C)c2c(c(C)c1O)CCC(C)(COc1ccc([N+](=O)[O-])cc1)O2` (stereo not drawn) came in with a melting point of 114 to 116 °C.
For the compound `CCc1oc2ccc(C(C)C(=O)O)cc2c(=O)c1C` (stereo not drawn), the melting point fell in the range of 196 to 198 °C.
For `N#Cc1cn(-c2cccnc2)nc1-c1ccc([N+](=O)[O-])o1` the value was 206 to 207 °C.
As to `CCOC(=O)c1cn(C2CC2)c2nc(N3C[C@@H](CNC(C)=O)[C@H](F)C3)c(F)cc2c1=O` (relative stereo), the melting point was 211 to 213 °C.
For `CCN1C(=O)CCC(C)(C)c2cc(Nc3ncc(Cl)c(Nc4ccc(N5CCOCC5)cc4OC)n3)ccc21` the value was 255 °C; for `O=C(O)CNC(=O)c1nc2ccc(NCCCN3CCC(OC(c4ccccc4)c4ccccc4)CC3)nn2n1`, 256 to 258 °C; for `C#Cc1cccc(-n2c(=O)oc3ccc(-c4ccc(F)cc4F)cc3c2=O)c1`, 195 to 196 °C.
Under `C=CCNC(=O)N1CC(OCc2ccc(C(F)(F)F)cc2)C1` stands 120 °C; under `Nc1ccc(S(=O)(=O)Nc2nc(-c3cccc([N+](=O)[O-])c3)cs2)cc1`, 191 to 193 °C.
Under `COc1ccc(C=C(C#N)c2ccc(F)cc2)cc1OC1CCCC1` stands 139 to 141 °C; under `CCCN1C(=O)CN(C)C1S(=O)(=O)N=NC(=O)Nc1nc(OC)cc(OC)n1` (stereo not drawn), 96 to 98 °C.
For the compound `NC(CC(c1ccccc1)c1ccccc1)(C(=O)O)C1CC(C(=O)O)(C(=O)O)C1` (stereo not drawn), the melting point lay in the range of 182 to 185 °C.
For `COc1ccccc1NC(=O)Nc1nc(Nc2ccccc2-c2ccccc2)nc(N(CCC(=O)O)Cc2ccccc2C(F)(F)F)n1`, the melting point fell in the range of 216 to 219 °C.
Regarding `O=C(Nc1ccnn1-c1ccc(Cl)cc1Cl)c1cccnc1Cl`, the melting point lay in the range of 162 to 164 °C.
Under `COc1ccc(-c2cc(=O)c3c(OCC4=COC(C)(C)O4)cc(OCC4=COC(C)(C)O4)cc3o2)cc1O` stands 160 °C; under `O=C1CCC(c2cc3c(s2)CC(NS(=O)(=O)c2ccccc2)CC3)=NN1` (stereo not drawn), 230 to 232 °C; under `ClCc1ccc(OCc2csc(-c3ccccc3)n2)cc1`, 98 to 99 °C.
For `CSC(C)(C(=O)O)c1cccc(Oc2ccccc2)c1` (stereo not drawn) the value was 87 to 88 °C.
For `O=C(N[C@@H](Cc1ccccc1)C(=O)O)OCC1c2ccccc2Oc2ccccc21` the value was 143 to 145 °C; for `COc1ccc(C(=O)Nc2ccccc2)cc1NC(=S)Nc1ccc(S(N)(=O)=O)cc1`, 193 to 195 °C.
With `Clc1ccc(C2CC(n3ccnc3)c3ccccc3N2)cc1` (stereo not drawn), the melting point lay in the range of 158 to 160 °C.
For `Cc1c(C)c2c(c(C)c1OC=O)SC(CCCI)O2` (stereo not drawn) the value was 91 to 93 °C; for `Nc1c([N+](=O)[O-])sc2c(Cl)cc(Cl)cc12`, 290 to 292 °C.
For `CCOC(=O)c1nnc2n1-c1ccccc1C(c1ccccc1)=NC2` the value was 205 to 206 °C; for `Nc1cc2c(cn1)[nH]c1ccccc12`, 288 to 290 °C.
Under `Cc1nc2c([nH]1)C(=O)N1CCN=C1N2Cc1ccc(Cl)cc1` stands 312 to 314 °C; under `OCc1cccnc1N1CCN(c2nc3cc(C(F)(F)F)cc(Cl)c3[nH]2)CC1`, 252 °C.
With `COc1ccc(CCCC(CCc2ccc(OC)cc2)C(=O)O)cc1` (stereo not drawn), the melting point was in the range of 91 to 94 °C.
For `CCCOC1C=CC(=O)N1S(=O)(=O)c1ccccc1` (stereo not drawn) the value was 56 to 58 °C; for `N#CC(N)=C(C#N)N=C1c2ccccc2-c2ccccc21`, 156 to 157 °C; for `O=C(O)CCc1cnoc1-c1ccc(-c2ccccc2)cc1`, 94 to 95 °C.
Under `Cc1c(Cl)c(Oc2c(Cl)cc(C(F)(F)F)cc2Cl)nn1C(=O)NCCCl` stands 141 to 143 °C.
For the compound `CC(C)CCS(=O)c1cccc(-c2nc(=O)c3ccccc3s2)n1` (stereo not drawn), the melting point fell in the range of 59.5 to 61 °C.
Under `CNC(=O)c1cc(C(=O)OC)cc(C(=O)NC)n1` stands 202 to 203 °C; under `O=C1NCc2ccc3ccccc3c21`, 138 to 141 °C; under `COCc1cc(-c2cc3c(cc2F)c(=O)c(C(=O)O)cn3C2CC2)cc(C)n1`, 192 to 193 °C.
For `OCC1(Cc2ccccc2)CCC2(CC1)OCCO2` the value was 76 to 78 °C; for `Cn1c(=O)c(-c2c(Cl)cccc2Cl)cc2cnc(Nc3cccc(CO)c3)nc21`, 215 to 217 °C; for `CC(C)=CCN1CCn2c(=O)[nH]c3cc(Cl)cc(c32)C1C` (stereo not drawn), 139 °C.
As to `Cc1cccc2nc3n(c(=O)c12)-c1ccccc1C3=O`, the melting point is 304 to 307 °C.
Under `O=C1CN(NC(=O)NC(C(=O)O)c2ccccc2)C(=O)N1` (stereo not drawn) stands 139 to 143 °C; under `NC(=O)c1ccc(N)nc1F`, 236 to 237 °C; under `CC(C(N)=O)c1ccc2c(c1)C(=O)Cc1ccc(F)cc1S2` (stereo not drawn), 176 to 178 °C.
Under `C#Cc1ccc2c(C(=O)c3ccc(OCCN4CCCCC4)cc3)c(-c3ccc(O)cc3)sc2c1` stands 97 to 100 °C; under `COc1cc(Br)nc(NC(=O)NS(=O)(=O)c2cccc3c2SCC3)n1`, 238 to 240 °C.
Under `COc1cc(C(=O)C=Cc2cccnc2)cc(OC)c1OC` stands 137 to 138 °C.
`COc1ccc(-c2c(Cl)c(CN3C(=O)CSC3=O)nc3sc4c(c23)CCSC4)cc1` yielded a melting point of 208 to 209 °C.
Under `CCCOc1cccc(-c2nc(=O)c3ccccc3s2)n1` stands 138 to 140 °C; under `Cn1cnc2nc(-c3ccc(Cl)cc3)nn2c1=S`, 283 to 285 °C.
Compound `NC(=O)C[C@H](NC(=O)c1ccc(OCc2ccccc2)cc1OCc1ccccc1)C(=O)N1CCN(Cc2ccccc2)CC1` yielded a melting point of 66 to 68 °C.
Compound `OCc1cc(Cl)c(Br)cn1` showed a melting point of 109 to 110 °C.
Under `COC(=O)[C@H](Cc1ccc(NC(=O)c2c(Cl)cccc2Cl)cc1)NC(=S)C1(CCCSC)CCC1` stands 184 to 186 °C.
`COc1ccc(N2CCOCC2)c2sc(C(=O)NCC(=O)c3csc4ccccc34)nc12` returned a melting point of 210 °C.
Regarding `Fc1cc(OC23CC4CC(CC(C4)C2)C3)ccc1N1CCCC1`, the melting point fell in the range of 99 to 106 °C.
Under `CCOC(=O)C(Cc1cn(C)c2c(Cl)cccc12)(NC=O)C(=O)OCC` stands 83 to 87 °C.
`CC1=C(C#CC(C)C=CO)C(C)(C)CCC1=O` (stereo not drawn) had a melting point of 102 to 105 °C.
Under `C=CCNc1cc(Cl)nnc1Cl` stands 95 to 98 °C; under `NC(=NO)c1nc(Cl)c(Cl)[nH]1`, 270 to 275 °C; under `Cn1cc(-c2cc(-c3cnc4[nH]ccc4c3)ccn2)n(-c2ccc(N3CCNCC3)c(C(F)(F)F)c2)c1=O`, 163 °C.
`O=C(CN1C(=O)C2(COc3ccc(-c4cccnc4)cc32)c2ccccc21)Nc1ccccc1F` (stereo not drawn) registered a melting point of 98 to 100 °C.
For `Nc1ccc(S(=O)(=O)c2cc(Cl)nc(N3CCCC3)c2)cc1` the value was 225 to 226 °C; for `Fc1ccc(-n2nc(-c3cccc(C(F)(F)F)c3)c3ncccc3c2=S)cc1`, 214 to 215 °C; for `COC(=O)c1ccccc1OCC(O)CNC(C)C` (stereo not drawn), 78 to 79 °C.
Compound `CC(C)(C)O[C@@H]1C[C@@H](CO)N(S(=O)(=O)c2ccc3ccccc3c2)C1` had a melting point of 124 to 125 °C.
For `CC(C)(C)c1ccc(C(=O)c2c(N)sc3c2CCN(Cc2ccccc2)C3)cc1`, the melting point lay in the range of 124 to 125 °C.
Under `CC(C)(C)OC(=O)N1CCOc2ccc(O)cc2S1(=O)=O` stands 143 °C; under `CC(C)OC(=O)Cn1c(=O)n(C)c(=O)n(-c2cc(N3C(=O)C4CS(=O)CCN4C3=O)c(F)cc2Cl)c1=O` (stereo not drawn), 175 to 180 °C.
In turn, `CC(=O)Nc1nc(OCc2cccs2)ncc1F` gave a melting point of 134 to 136 °C.
Consider `CCOC(=O)COc1ccc(C(=O)Nc2cccc(Cl)c2Cl)cc1`, for which the melting point was 126 to 129 °C.
